For the assay, the system named is L1210 leukemia ip in BDF1 mice, survival T/C. The assay can be described thus: NCI In Vivo Anticancer Drug Screen. Data for tumor model L1210 Leukemia (intraperitoneal) in B6D2F1 (BDF1) mice. The conditions noted are these: higher = longer survival. The method in brief: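 Transplanted-tumor mice were given test agent; controls received vehicle only. Survival readings from the two groups were divided (treated over control).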

The mark [1] stands for this setting: endpoint: mean survival time, dose: 50.0 mg/kg/injection, schedule: Q01DX001 (ip), vehicle: saline.
The mark [2] stands for this setting: endpoint: mean survival time, dose: 100.0 mg/kg/injection, schedule: Q01DX001 (ip), vehicle: saline.

Several values for one entry are separate records, joined by “and”; a condition that tells them apart may be missing. Equal values may be shown once. Toxic doses and inconclusive results are not listed.

As to `O=C(CCBr)N1CCN(C(=O)CCBr)CC1`, the T/C by setting is: (endpoint: mean survival time, dose: 1.33 mg/kg/injection, schedule: Q#B X Z (ip), vehicle: carboxymethylcellulose (CMC)) 86 % of control; (endpoint: mean survival time, dose: 2.66 mg/kg/injection, schedule: Q#B X Z (ip), vehicle: carboxymethylcellulose (CMC)) 108 % of control; (endpoint: mean survival time, dose: 3.2 mg/kg/injection, schedule: Q01DX Z (oral), vehicle: carboxymethylcellulose (CMC)) 100 % of control; (endpoint: mean survival time, dose: 5.33 mg/kg/injection, schedule: Q#B X Z (ip), vehicle: carboxymethylcellulose (CMC)) 103 % of control; (endpoint: mean survival time, dose: 5.5 mg/kg/injection, schedule: Q07DX006 (ip), vehicle: carboxymethylcellulose (CMC)) 111 % of control; (endpoint: mean survival time, dose: 5.6 mg/kg/injection, schedule: Q01DX Z (ip), vehicle: methylcellulose (MC)) 120 % of control. Also, the T/C is, setting by setting: (endpoint: mean survival time, dose: 10.0 mg/kg/injection, schedule: Q01DX009 (ip), vehicle: saline) 94 % of control and 102 % of control; (endpoint: mean survival time, dose: 10.6 mg/kg/injection, schedule: Q01DX Z (ip), vehicle: carboxymethylcellulose (CMC)) 108 % of control and 117 % of control; (endpoint: mean survival time, dose: 10.66 mg/kg/injection, schedule: Q#B X Z (ip), vehicle: carboxymethylcellulose (CMC)) 86 % of control; (endpoint: mean survival time, dose: 10.9 mg/kg/injection, schedule: Q07DX006 (ip), vehicle: carboxymethylcellulose (CMC)) 90 % of control; (endpoint: mean survival time, dose: 11.25 mg/kg/injection, schedule: Q01DX Z (ip), vehicle: methylcellulose (MC)) 115 % of control; (endpoint: mean survival time, dose: 12.0 mg/kg/injection, schedule: Q01DX006 (iv), vehicle: carboxymethylcellulose (CMC)) 113 % of control. The T/C is 101 % of control (endpoint: mean survival time, dose: 12.0 mg/kg/injection, schedule: Q01DX Z (im), vehicle: carboxymethylcellulose (CMC)); 95 % of control (endpoint: mean survival time, dose: 12.0 mg/kg/injection, schedule: Q01DX Z (ip), vehicle: carboxymethylcellulose (CMC)); 94 % of control (endpoint: mean survival time, dose: 12.0 mg/kg/injection, schedule: Q01DX Z (sc), vehicle: carboxymethylcellulose (CMC)); 110 % of control (endpoint: mean survival time, dose: 12.5 mg/kg/injection, schedule: Q01DX Z (oral), vehicle: carboxymethylcellulose (CMC)); 111 % of control (endpoint: mean survival time, dose: 16.0 mg/kg/injection, schedule: Q01DX Z (ip), vehicle: carboxymethylcellulose (CMC)); 155 % of control and 158 % of control (endpoint: mean survival time, dose: 18.0 mg/kg/injection, schedule: Q01DX009 (ip), vehicle: saline). Moreover, the T/C is, setting by setting: (endpoint: mean survival time, dose: 20.0 mg/kg/injection, schedule: Q01DX009 (ip), vehicle: saline) 103 % of control and 108 % of control; (endpoint: mean survival time, dose: 21.8 mg/kg/injection, schedule: Q07DX006 (ip), vehicle: carboxymethylcellulose (CMC)) 106 % of control; (endpoint: mean survival time, dose: 24.0 mg/kg/injection, schedule: Q01DX Z (ip), vehicle: carboxymethylcellulose (CMC)) 111 % of control; (endpoint: mean survival time, dose: 25.0 mg/kg/injection, schedule: Q01DX001 (ip), vehicle: saline) 99 % of control and 106 % of control and 111 % of control; (endpoint: mean survival time, dose: 25.0 mg/kg/injection, schedule: Q01DX006 (iv), vehicle: carboxymethylcellulose (CMC)) 94 % of control; (endpoint: mean survival time, dose: 25.0 mg/kg/injection, schedule: Q01DX Z (im), vehicle: carboxymethylcellulose (CMC)) 94 % of control. Further, the T/C runs as follows: (endpoint: mean survival time, dose: 25.0 mg/kg/injection, schedule: Q01DX Z (ip), vehicle: carboxymethylcellulose (CMC)) 98 % of control; (endpoint: mean survival time, dose: 25.0 mg/kg/injection, schedule: Q01DX Z (oral), vehicle: carboxymethylcellulose (CMC)) 120 % of control; (endpoint: mean survival time, dose: 25.0 mg/kg/injection, schedule: Q01DX Z (sc), vehicle: carboxymethylcellulose (CMC)) 103 % of control; (endpoint: mean survival time, dose: 36.0 mg/kg/injection, schedule: Q01DX009 (ip), vehicle: saline) 160 % of control and 186 % of control; (endpoint: mean survival time, dose: 36.0 mg/kg/injection, schedule: Q01DX Z (ip), vehicle: carboxymethylcellulose (CMC)) 150 % of control; (endpoint: mean survival time, dose: 37.0 mg/kg/injection, schedule: Q03DX008 (ip), vehicle: carboxymethylcellulose (CMC)) 104 % of control. In addition, the T/C was 172 % of control (endpoint: mean survival time, dose: 45.0 mg/kg/injection, schedule: Q01DX Z (ip), vehicle: methylcellulose (MC)); 110 % of control and 111 % of control and 116 % of control under setting [1]; 113 % of control (endpoint: mean survival time, dose: 50.0 mg/kg/injection, schedule: Q01DX006 (iv), vehicle: carboxymethylcellulose (CMC)); 110 % of control (endpoint: mean survival time, dose: 50.0 mg/kg/injection, schedule: Q01DX Z (im), vehicle: carboxymethylcellulose (CMC)); 123 % of control (endpoint: mean survival time, dose: 50.0 mg/kg/injection, schedule: Q01DX Z (ip), vehicle: carboxymethylcellulose (CMC)); 116 % of control (endpoint: mean survival time, dose: 50.0 mg/kg/injection, schedule: Q01DX Z (sc), vehicle: carboxymethylcellulose (CMC)). Moreover, the T/C (endpoint: mean survival time, dose: 54.0 mg/kg/injection, schedule: Q01DX009 (ip), vehicle: saline) was 183 % of control and 208 % of control; the T/C (endpoint: mean survival time, dose: 81.0 mg/kg/injection, schedule: Q01DX Z (ip), vehicle: carboxymethylcellulose (CMC)) is 117 % of control; the T/C (endpoint: mean survival time, dose: 90.0 mg/kg/injection, schedule: Q01DX Z (ip), vehicle: methylcellulose (MC)) is 155 % of control; the T/C (endpoint: mean survival time, dose: 100.0 mg/kg/injection, schedule: Q01DX001 (ip), vehicle: carboxymethylcellulose (CMC)) was 103 % of control and 110 % of control; the T/C under setting [2] is 121 % of control; the T/C (endpoint: mean survival time, dose: 100.0 mg/kg/injection, schedule: Q01DX006 (iv), vehicle: carboxymethylcellulose (CMC)) is 123 % of control. Also, the T/C is 155 % of control (endpoint: mean survival time, dose: 100.0 mg/kg/injection, schedule: Q01DX Z (ip), vehicle: carboxymethylcellulose (CMC)); 162 % of control (endpoint: mean survival time, dose: 100.0 mg/kg/injection, schedule: Q01DX Z (oral), vehicle: carboxymethylcellulose (CMC)); 111 % of control (endpoint: mean survival time, dose: 100.0 mg/kg/injection, schedule: Q04DX003 (ip), vehicle: saline); 202 % of control and 218 % of control (endpoint: mean survival time, dose: 120.0 mg/kg/injection, schedule: Q01DX009 (ip), vehicle: saline); 205 % of control (endpoint: mean survival time, dose: 150.0 mg/kg/injection, schedule: Q03DX008 (ip), vehicle: carboxymethylcellulose (CMC)); 108 % of control and 124 % of control (endpoint: mean survival time, dose: 200.0 mg/kg/injection, schedule: Q01DX001 (ip), vehicle: carboxymethylcellulose (CMC)). Besides, the T/C runs as follows: (endpoint: mean survival time, dose: 200.0 mg/kg/injection, schedule: Q01DX Z (im), vehicle: carboxymethylcellulose (CMC)) 158 % of control; (endpoint: mean survival time, dose: 200.0 mg/kg/injection, schedule: Q01DX Z (ip), vehicle: carboxymethylcellulose (CMC)) 162 % of control; (endpoint: mean survival time, dose: 200.0 mg/kg/injection, schedule: Q01DX Z (oral), vehicle: carboxymethylcellulose (CMC)) 90 % of control; (endpoint: mean survival time, dose: 200.0 mg/kg/injection, schedule: Q01DX Z (sc), vehicle: carboxymethylcellulose (CMC)) 158 % of control; (endpoint: mean survival time, dose: 300.0 mg/kg/injection, schedule: Q03DX008 (ip), vehicle: carboxymethylcellulose (CMC)) 181 % of control; (endpoint: mean survival time, dose: 350.0 mg/kg/injection, schedule: Q07DX004 (ip), vehicle: carboxymethylcellulose (CMC)) 215 % of control. Moreover, the T/C is, setting by setting: (endpoint: mean survival time, dose: 400.0 mg/kg/injection, schedule: Q01DX001 (ip), vehicle: carboxymethylcellulose (CMC)) 102 % of control; (endpoint: mean survival time, dose: 400.0 mg/kg/injection, schedule: Q01DX001 (ip), vehicle: saline) 114 % of control; (endpoint: mean survival time, dose: 400.0 mg/kg/injection, schedule: Q01DX Z (im), vehicle: carboxymethylcellulose (CMC)) 100 % of control; (endpoint: mean survival time, dose: 400.0 mg/kg/injection, schedule: Q01DX Z (ip), vehicle: carboxymethylcellulose (CMC)) 94 % of control; (endpoint: mean survival time, dose: 400.0 mg/kg/injection, schedule: Q01DX Z (sc), vehicle: carboxymethylcellulose (CMC)) 98 % of control; (endpoint: mean survival time, dose: 400.0 mg/kg/injection, schedule: Q04DX003 (ip), vehicle: saline) 153 % of control and 180 % of control. The T/C runs as follows: (endpoint: mean survival time, dose: 600.0 mg/kg/injection, schedule: Q03DX003 (ip), vehicle: carboxymethylcellulose (CMC)) 90 % of control; (endpoint: mean survival time, dose: 700.0 mg/kg/injection, schedule: Q07DX004 (ip), vehicle: carboxymethylcellulose (CMC)) 100 % of control; (endpoint: mean survival time, dose: 800.0 mg/kg/injection, schedule: Q01DX001 (ip), vehicle: carboxymethylcellulose (CMC)) 98 % of control and 116 % of control; (endpoint: median survival time, dose: 10.0 mg/kg/injection, schedule: Q01DX009 (ip), vehicle: saline) 105 % of control and 87 % of control; (endpoint: median survival time, dose: 40.0 mg/kg/injection, schedule: Q01DX009 (ip), vehicle: saline) 150 % of control; (endpoint: median survival time, dose: 80.0 mg/kg/injection, schedule: Q01DX009 (ip), vehicle: saline) 181 % of control and 183 % of control.
For the compound `CCN(CC)CCOc1cccc(OC)c1`, the T/C by setting is: (endpoint: mean survival time, dose: 25.0 mg/kg/injection, schedule: Q01DX009 (ip), vehicle: saline) 95 % of control; (endpoint: mean survival time, dose: 50.0 mg/kg/injection, schedule: Q01DX009 (ip), vehicle: saline) 96 % of control; (endpoint: mean survival time, dose: 75.0 mg/kg/injection, schedule: Q01DX009 (ip), vehicle: saline) 95 % of control and 108 % of control.
With `CC(=O)O[C@@H]1C[C@@]2(C)[C@@H]3CC=C4[C@@H](C[C@H](O)C(=O)C4(C)C)[C@]3(C)C(=O)C[C@]2(C)[C@H]1[C@@](C)(O)C(=O)/C=C/C(C)(C)OC(C)=O`, the T/C under setting [1] was 102 % of control and the T/C under setting [2] is 107 % of control.

The values are drawn from PubChem BioAssay AID248 (DTP/NCI, 2004).
